Reference: patent US11078202B2, “β-lactamase inhibitor and use thereof” (priority 2018, dated 2021)
Where a name gives a salt, the structure may show the parent alone.

What was measured:
Type in all cases: cell-based
[1] = test system: Acinetobacter baumannii XNWB 0007; test: MIC assay of test compounds combined with ceftazidime (8 μg/mL); details: ceftazidime 8 μg/mL fixed
In short: (§1)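 Inoculum: TSA-grown colonies (35±2 °C, 20-24 h, subcultured once), NaCl 0.9% suspension at OD600 0.1-0.15, then 300× dilution into 1.1×CAMHB. Serial compound dilutions with the partner antibiotic at a fixed level; ambient-air incubation 16-20 h, 35±2 °C; CLSI-based MIC readout.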

[2] = test system: Klebsiella pneumoniae XNWB 0001; test: as above; details: ceftazidime 8 μg/mL fixed
In short: as §1

[3] = test system: Klebsiella pneumoniae XNWB 0002; test: as above; details: ceftazidime 8 μg/mL fixed
In short: as §1

[4] = test system: Klebsiella pneumoniae XNWB 0003; test: as above; details: ceftazidime 8 μg/mL fixed
In short: as §1

[5] = test system: Klebsiella pneumoniae XNWB 0004; test: as above; details: ceftazidime 8 μg/mL fixed
In short: as §1

[6] = test system: Klebsiella pneumoniae XNWB 0005; test: as above; details: ceftazidime 8 μg/mL fixed
In short: as §1

[7] = test system: Klebsiella pneumoniae XNWB 0006; test: as above; details: ceftazidime 8 μg/mL fixed
In short: as §1

[8] = test system: Pseudomonas aeruginosa XNWB 0008; test: as above; details: ceftazidime 8 μg/mL fixed
In short: as §1

[9] = test system: Acinetobacter baumannii XNWB 0007; test: MIC assay of test compounds combined with imipenem (4 μg/mL); details: imipenem 4 μg/mL fixed
In short: as §1

[10] = test system: Klebsiella pneumoniae XNWB 0001; test: as above; details: imipenem 4 μg/mL fixed
In short: as §1

[11] = test system: Klebsiella pneumoniae XNWB 0002; test: as above; details: imipenem 4 μg/mL fixed
In short: as §1

[12] = test system: Klebsiella pneumoniae XNWB 0003; test: as above; details: imipenem 4 μg/mL fixed
In short: as §1

[13] = test system: Klebsiella pneumoniae XNWB 0004; test: as above; details: imipenem 4 μg/mL fixed
In short: as §1

[14] = test system: Klebsiella pneumoniae XNWB 0005; test: as above; details: imipenem 4 μg/mL fixed
In short: as §1

[15] = test system: Klebsiella pneumoniae XNWB 0006; test: as above; details: imipenem 4 μg/mL fixed
In short: as §1

[16] = test system: Pseudomonas aeruginosa XNWB 0008; test: as above; details: imipenem 4 μg/mL fixed
In short: as §1

Structure (SMILES) | The minimum concentration of test compounds combined with ceftazidime (8 μg/mL) for bacteriostasis [1] | The minimum concentration of test compounds combined with ceftazidime (8 μg/mL) for bacteriostasis [2] | The minimum concentration of test compounds combined with ceftazidime (8 μg/mL) for bacteriostasis [3] | The minimum concentration of test compounds combined with ceftazidime (8 μg/mL) for bacteriostasis [4] | The minimum concentration of test compounds combined with ceftazidime (8 μg/mL) for bacteriostasis [5] | The minimum concentration of test compounds combined with ceftazidime (8 μg/mL) for bacteriostasis [6] | The minimum concentration of test compounds combined with ceftazidime (8 μg/mL) for bacteriostasis [7] | The minimum concentration of test compounds combined with ceftazidime (8 μg/mL) for bacteriostasis [8] | The minimum concentration of test compounds combined with imipenem (4 μg/mL) for bacteriostasis [9] | The minimum concentration of test compounds combined with imipenem (4 μg/mL) for bacteriostasis [10] | The minimum concentration of test compounds combined with imipenem (4 μg/mL) for bacteriostasis [11] | The minimum concentration of test compounds combined with imipenem (4 μg/mL) for bacteriostasis [12] | The minimum concentration of test compounds combined with imipenem (4 μg/mL) for bacteriostasis [13] | The minimum concentration of test compounds combined with imipenem (4 μg/mL) for bacteriostasis [14] | The minimum concentration of test compounds combined with imipenem (4 μg/mL) for bacteriostasis [15] | The minimum concentration of test compounds combined with imipenem (4 μg/mL) for bacteriostasis [16]
N[C@H]1C[C@@H](c2cc([C@@H]3CC4(CC4)[C@@H]4CN3C(=O)N4OS(=O)(=O)O)no2)C1 [Example 26, (1R,4S)-4-(5-((1R,3R)-3-aminocyclobutyl)isoxazol-3-yl)-6-oxo-5,7-diazaspiro[bicycle [3.2.1]octane-2,1′-cyclopropan]-7-yl sulfate] | C (C: 16-128 μg/mL) | A (A: <8 μg/mL) | A (A: <8 μg/mL) | A (A: <8 μg/mL) | A (A: <8 μg/mL) | A (A: <8 μg/mL) | A (A: <8 μg/mL) | B (B: 8-16 μg/mL) | C (C: 16-128 μg/mL) | A (A: <8 μg/mL) | A (A: <8 μg/mL) | A (A: <8 μg/mL) | A (A: <8 μg/mL) | A (A: <8 μg/mL) | A (A: <8 μg/mL) | A (A: <8 μg/mL)
O=C(NC1CCNCC1)[C@@H]1CC2(CC2)[C@@H]2CN1C(=O)N2OS(=O)(=O)O [Example 27, (1R,4S)-6-oxo-4-(piperidin-4-ylaminoformyl)-5,7-diazaspiro[bicyclo[3.2.1]octane-2,1′-cyclopropan]-7-yl sulfate] | C (C: 16-128 μg/mL) | A (A: <8 μg/mL) | A (A: <8 μg/mL) | B (B: 8-16 μg/mL) | B (B: 8-16 μg/mL) | A (A: <8 μg/mL) | A (A: <8 μg/mL) | A (A: <8 μg/mL) | C (C: 16-128 μg/mL) | A (A: <8 μg/mL) | A (A: <8 μg/mL) | A (A: <8 μg/mL) | A (A: <8 μg/mL) | A (A: <8 μg/mL) | A (A: <8 μg/mL) | A (A: <8 μg/mL)
O=C(NC1CCNC1)[C@@H]1CC2(CC2)[C@@H]2CN1C(=O)N2OS(=O)(=O)O (stereo partly drawn) [Example 28, (1R,4S)-6-oxo-4-(pyrrolidin-3-ylaminoformyl)-5,7-diazaspiro[bicyclo[3.2.1]octane-2,1′-cyclopropan]-7-yl sulfate] | C (C: 16-128 μg/mL) | A (A: <8 μg/mL) | A (A: <8 μg/mL) | A (A: <8 μg/mL) | B (B: 8-16 μg/mL) | A (A: <8 μg/mL) | A (A: <8 μg/mL) | A (A: <8 μg/mL) | C (C: 16-128 μg/mL) | A (A: <8 μg/mL) | A (A: <8 μg/mL) | A (A: <8 μg/mL) | A (A: <8 μg/mL) | A (A: <8 μg/mL) | A (A: <8 μg/mL) | A (A: <8 μg/mL)
O=C(NC1CNC1)[C@@H]1CC2(CC2)[C@@H]2CN1C(=O)N2OS(=O)(=O)O [Example 29, (1R,4S)-4-(azetidin-3-ylaminoformyl)-6-oxo-5,7-diazaspiro[bicyclo[3.2.1]octane-2,1′-cyclopropan]-7-yl sulfate] | C (C: 16-128 μg/mL) | A (A: <8 μg/mL) | A (A: <8 μg/mL) | A (A: <8 μg/mL) | A (A: <8 μg/mL) | A (A: <8 μg/mL) | A (A: <8 μg/mL) | B (B: 8-16 μg/mL) | C (C: 16-128 μg/mL) | A (A: <8 μg/mL) | A (A: <8 μg/mL) | A (A: <8 μg/mL) | A (A: <8 μg/mL) | A (A: <8 μg/mL) | A (A: <8 μg/mL) | A (A: <8 μg/mL)
